From patent US10988477B2 (Merck Patent GmbH, priority 2018, dated 2021)

How the values were obtained:
GCN2 kinase = GCN2 kinase (Homo sapiens, UniProt Q9P2K8); experiment: GCN2 enzyme inhibition assay (Transcreener ADP2 fluorescence polarization); type: biochemical; conditions: 280 μM ATP
Method in brief: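 Kinase activity is followed as ADP formation, measured by fluorescence polarization, using 4 nM enzyme with 280 μM ATP and 200 μM (RS)7 peptide at pH 7.5 and 25 °C for 1 h. Values come from a non-linear tight-binding fit.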

[1] = molecular target: intracellular GCN2 (phosphorylation of the GCN2 substrate eIF2α) (Homo sapiens, UniProt Q9P2K8); experiment: GCN2 cellular inhibition assay (AlphaScreen SureFire P-eIF2α Ser51, borrelidin-treated U2OS cells); type: cell-based; conditions: biomarker assay, phosphorylated eIF2α Ser51 in borrelidin-treated U2OS cells
Method in brief: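 U2OS cells, adhered overnight, received compounds in 4-fold serial dilutions from 40 μM final, then 10 μM borrelidin for 1 h at 37 °C. Lysates were read by AlphaScreen for phospho-eIF2α Ser51; percent inhibition was set against borrelidin-only wells.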

[2] = Enzyme activity for compounds of Formula IV, Ki(app), 25° C.
[3] = compounds of Formula II, 4 nM GCN2 kinase

Sequence of GCN2 kinase (Q9P2K8 whole entry): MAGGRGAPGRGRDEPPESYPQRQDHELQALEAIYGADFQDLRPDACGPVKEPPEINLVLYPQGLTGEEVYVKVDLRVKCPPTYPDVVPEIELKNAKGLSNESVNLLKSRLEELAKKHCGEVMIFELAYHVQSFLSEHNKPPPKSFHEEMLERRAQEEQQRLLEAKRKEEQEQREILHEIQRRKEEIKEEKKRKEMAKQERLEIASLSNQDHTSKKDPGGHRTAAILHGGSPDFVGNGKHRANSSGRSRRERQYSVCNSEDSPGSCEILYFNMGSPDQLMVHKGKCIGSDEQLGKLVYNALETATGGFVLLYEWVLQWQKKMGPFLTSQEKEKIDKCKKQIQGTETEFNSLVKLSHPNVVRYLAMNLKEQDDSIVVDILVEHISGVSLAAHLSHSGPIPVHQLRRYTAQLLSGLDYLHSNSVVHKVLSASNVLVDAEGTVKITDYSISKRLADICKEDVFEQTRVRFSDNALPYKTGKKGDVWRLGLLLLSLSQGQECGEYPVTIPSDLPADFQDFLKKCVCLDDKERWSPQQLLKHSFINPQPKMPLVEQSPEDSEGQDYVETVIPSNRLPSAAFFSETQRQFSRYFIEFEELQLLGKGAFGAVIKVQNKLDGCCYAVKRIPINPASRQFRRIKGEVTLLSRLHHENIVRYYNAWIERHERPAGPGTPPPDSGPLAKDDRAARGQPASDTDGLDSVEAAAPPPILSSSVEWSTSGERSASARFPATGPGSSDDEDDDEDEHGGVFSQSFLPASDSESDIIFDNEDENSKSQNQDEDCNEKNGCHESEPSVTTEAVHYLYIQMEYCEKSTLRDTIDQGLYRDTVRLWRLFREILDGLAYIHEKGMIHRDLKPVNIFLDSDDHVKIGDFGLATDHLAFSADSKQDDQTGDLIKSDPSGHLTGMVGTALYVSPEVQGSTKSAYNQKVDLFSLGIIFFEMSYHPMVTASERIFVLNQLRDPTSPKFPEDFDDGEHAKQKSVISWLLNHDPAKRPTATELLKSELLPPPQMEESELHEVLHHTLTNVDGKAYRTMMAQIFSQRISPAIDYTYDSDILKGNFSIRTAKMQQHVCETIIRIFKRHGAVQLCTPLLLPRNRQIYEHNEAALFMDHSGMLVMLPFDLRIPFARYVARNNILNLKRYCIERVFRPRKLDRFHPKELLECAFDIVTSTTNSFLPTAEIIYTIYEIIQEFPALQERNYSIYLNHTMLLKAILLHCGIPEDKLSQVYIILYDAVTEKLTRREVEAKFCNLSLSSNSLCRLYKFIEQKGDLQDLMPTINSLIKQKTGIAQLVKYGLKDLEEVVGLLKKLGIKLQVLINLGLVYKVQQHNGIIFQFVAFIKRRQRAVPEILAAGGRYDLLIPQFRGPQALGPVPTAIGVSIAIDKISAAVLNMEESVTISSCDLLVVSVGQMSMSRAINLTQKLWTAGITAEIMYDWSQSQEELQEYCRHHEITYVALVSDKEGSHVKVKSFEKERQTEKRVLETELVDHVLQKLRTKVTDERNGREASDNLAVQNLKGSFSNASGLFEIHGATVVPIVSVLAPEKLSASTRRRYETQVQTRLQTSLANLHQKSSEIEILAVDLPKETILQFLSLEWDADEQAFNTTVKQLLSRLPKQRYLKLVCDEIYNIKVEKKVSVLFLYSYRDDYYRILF
Sequence of intracellular GCN2 (phosphorylation of the GCN2 substrate eIF2α) (Q9P2K8 whole entry): as above

Structure (SMILES)	Ki (GCN2 kinase; [2]) [nM]	IC50 ([1]; compounds of Formula IV) [nM]	Ki (GCN2 kinase; [3]) [nM]	IC50 ([1]; compounds of Formula II) [nM]
C[C@@H]1CN(c2cc(-c3cnc4ccc(C(F)F)nn34)ncn2)CC(C(N)=O)O1 (stereo partly drawn) [II-201, (6R)-4-(6-(6-(Difluoromethyl)imidazo[1,2-b]pyridazin-3-yl)pyrimidin-4-yl)-6-methylmorpholine-2-carboxamide]			10 to 1000	> 5000
FC(F)c1ccc2ncc(-c3cc(C4CCCN(C5COC5)C4)ncn3)n2n1 (single isomer, unassigned) [II-241, 6-(Difluoromethyl)-3-(6-(1-(oxetan-3-yl)piperidin-3-yl)pyrimidin-4-yl)imidazo[1,2-b]pyridazine]			> 1000	> 5000
C[C@@H]1COCCN1c1cc(-c2cnc3ccc(C(F)F)nn23)ncn1 [II-324, (R)-4-(6-(6-(Difluoromethyl)imidazo[1,2-b]pyridazin-3-yl)pyrimidin-4-yl)-3-methylmorpholine]			10 to 1000	> 5000
O=C1CN(c2cc(-c3cnc4ccc(C(F)F)nn34)ccn2)CC2(CC2)N1 [II-160, 7-(4-(6-(Difluoromethyl)imidazo[1,2-b]pyridazin-3-yl)pyridin-2-yl)-4,7-diazaspiro[2.5]octan-5-one]			10 to 1000	500 to 5000
CC1C(CS(C)(=N)=O)OCCN1c1cc(-c2cnc3ccc(C(F)F)nn23)ncn1 (centres unmarked) [II-425, ((4-(6-(6-(Difluoromethyl)imidazo[1,2-b]pyridazin-3-yl)pyrimidin-4-yl)-3-methylmorpholin-2-yl)methyl)(imino)(methyl)-λ^6-sulfanone]			10 to 1000	500 to 5000
CS(=O)(=O)NCC1CN(c2cc(-c3cnc4ccc(C(F)F)nn34)ncn2)CC(C2CC2)O1 (centres unmarked) [II-444, N-((6-Cyclopropyl-4-(6-(6-(difluoromethyl)imidazo[1,2-b]pyridazin-3-yl)pyrimidin-4-yl)morpholin-2-yl)methyl)methanesulfonamide]			< 10	< 500

Second part, the compound after the results:

Ki (GCN2 kinase; [2]) [nM]	IC50 ([1]; compounds of Formula IV) [nM]	Ki (GCN2 kinase; [3]) [nM]	IC50 ([1]; compounds of Formula II) [nM]	Structure (SMILES)
10 to 100	500 to 5000			CC1CCC(C(N)=O)CN1c1ccnc(-c2cnc3cnc(C(F)(F)F)cn23)n1 (centres unmarked) [IV-631, 6-Methyl-1-(2-(6-(trifluoromethyl)imidazo[1,2-a]pyrazin-3-yl)pyrimidin-4-yl)piperidine-3-carboxamide]
100 to 1000	> 5000			Cn1nc(C2CCCN(c3ccnc(-c4cnc5cnc(C(F)F)cn45)n3)C2)cc1O (centres unmarked) [IV-113, 3-(1-(2-(6-(Difluoromethyl)imidazo[1,2-a]pyrazin-3-yl)pyrimidin-4-yl)piperidin-3-yl)-1-methyl-1H-pyrazol-5-ol]
< 10	500 to 5000			CC1CN(c2cccc(-c3cnc4cnc(C(F)(F)F)cn34)n2)C(C)C(c2cn[nH]c2)N1 (centres unmarked) [IV-583, 3-(6-(2,5-Dimethyl-3-(1H-pyrazol-4-yl)piperazin-1-yl)pyridin-2-yl)-6-(trifluoromethyl)imidazo[1,2-a]pyrazine]
10 to 100	500 to 5000			CC1CN(c2ccnc(-c3cnc4cnc(Cl)cn34)n2)CC(c2cn[nH]c2)N1 (single isomer, unassigned) [IV-213, 6-Chloro-3-(4-(3-methyl-5-(1H-pyrazol-4-yl)piperazin-1-yl)pyrimidin-2-yl)imidazo[1,2-a]pyrazine]
10 to 100	500 to 5000			FC(F)(F)c1cn2c(-c3nccc(N4CCCC(c5cc[nH]n5)C4)n3)cnc2cn1 (centres unmarked) [IV-589, 3-(4-(3-(1H-Pyrazol-3-yl)piperidin-1-yl)pyrimidin-2-yl)-6-(trifluoromethyl)imidazo[1,2-a]pyrazine]
10 to 100	500 to 5000			Cc1cc(N2CCC(c3cn[nH]c3)C2)nc(-c2cnc3cnc(C(F)(F)F)cn23)n1 (centres unmarked) [IV-668, 3-(4-(3-(1H-Pyrazol-4-yl)pyrrolidin-1-yl)-6-methylpyrimidin-2-yl)-6-(trifluoromethyl)imidazo[1,2-a]pyrazine]
10 to 100	500 to 5000			CC(=O)N1CCN(c2nccc(-c3cnc4cnc(C(N)=O)cn34)n2)CC1 [IV-182, 3-(2-(4-Acetylpiperazin-1-yl)pyrimidin-4-yl)imidazo[1,2-a]pyrazine-6-carboxamide]
